Measurements as given in patent US9796709B2, “5-hydroxy-4-(trifluoromethyl)pyrazolopyridine derivative” (Daiichi Sankyo Company, Limited, priority 2013, dated 2017).
pEC50: −log10 of the molar value.

Target: T1, LCAT (Homo sapiens, UniProt P04180)
T1 construct: The obtained fraction was dialyzed against phosphate-buffered saline (pH 7.4) and used as an enzyme source and an acceptor for LCAT; from tissue; host or cells: HDL3 fraction (1.125 < specific gravity < 1.210 g/mL) of plasma from a healthy person
T1 sequence (P04180 25-440): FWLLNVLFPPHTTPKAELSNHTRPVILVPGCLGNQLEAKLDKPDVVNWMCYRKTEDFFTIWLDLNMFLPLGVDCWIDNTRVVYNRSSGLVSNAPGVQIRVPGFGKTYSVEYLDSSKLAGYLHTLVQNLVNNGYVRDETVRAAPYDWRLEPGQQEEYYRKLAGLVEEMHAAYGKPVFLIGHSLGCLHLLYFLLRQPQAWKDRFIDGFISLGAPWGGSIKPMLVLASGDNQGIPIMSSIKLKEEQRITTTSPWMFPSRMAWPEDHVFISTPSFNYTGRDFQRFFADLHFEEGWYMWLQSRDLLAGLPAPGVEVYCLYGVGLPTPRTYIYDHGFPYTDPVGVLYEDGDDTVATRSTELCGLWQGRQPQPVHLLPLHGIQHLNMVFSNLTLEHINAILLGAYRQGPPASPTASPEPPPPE
Test: LCAT activity measurement (in vitro), [14C]cholesterol esterification with HDL3 fraction
Type: biochemical
Settings: HDL3 fraction from plasma of a healthy person as enzyme source and acceptor; 37° C., approximately 16 hours; relative to sample without test drug; read-out: EC50 of LCAT activation
Description: A fraction composed of HDL3 (1.125 <specific gravity <1.210 g/mL) was obtained from the plasma of a healthy person by density gradient centrifugation. The obtained fraction was dialyzed against phosphate-buffered saline (pH 7.4) and used as an enzyme source and an acceptor for LCAT. Each test drug was prepared by dissolution in dimethyl sulfoxide. [^14C]Cholesterol containing DTNB (Ellman's reagent, final concentration: 0.5 mM), mercaptoethanol (final concentration: 12.5 mM), and 0.6% bovine serum albumin was added to phosphate-buffered saline (pH 7.4) containing 1 mg/mL HDL3, and the test drug was further added thereto at varying concentrations to adjust the whole amount to 80 μL. This mixture was incubated at 37° C. for approximately 16 hours. Then, a mixed solution of hexane and isopropanol (mixing ratio=3:2) was added thereto to stop the reaction. After stirring, the hexane layer was collected, and this layer was evaporated to dryness. A chloroform solution (concentration: 10 mg/mL) was added thereto, and the mixture was spotted onto a thin-layer silica gel plate and developed using a mixed solution of hexane, diethyl ether, and ethyl acetate (mixing ratio=85:15:2). The radioactivity of a portion corresponding to cholesterol oleate was measured using an imaging analyzer BAS-2500 (manufactured by Fujifilm Corp.). A sample non-supplemented with the test drug was similarly treated and assayed. The EC50 value of LCAT activation was calculated according to the expression given below relative to LCAT activity in the sample non-supplemented with the test drug.
[formula] • wherein X represents the logarithm of the concentration of the test drug; • Y represents the responsiveness (LCAT activity) of the test drug; • Top represents the maximum value (maximum plateau); • Bottom represents the minimum value (minimum plateau); and • EC50 represents the 50% effective concentration.

Row | pEC50 | Structure (SMILES)
1 | 6.06 | O=C1Nc2[nH]nc(C3CCN(c4ccc(C(F)(F)F)cn4)CC3)c2[C@@H](C(F)(F)F)[C@@H]1O (racemic) [Example 1, trans-5-Hydroxy-4-(trifluoromethyl)-3-{1-[5-(trifluoromethyl)pyridin-2-yl]piperidin-4-yl}-1,4,5,7-tetrahydro-6H-pyrazolo[3,4-b]pyridin-6-one]
2 | 7.62 | O=C1Nc2[nH]nc(C3CCN(c4cncc(C(F)(F)F)c4)CC3)c2[C@@H](C(F)(F)F)[C@H]1O (single isomer, unassigned) [Example 38, (+)-cis-5-Hydroxy-4-(trifluoromethyl)-3-{1-[5-(trifluoromethyl)pyridin-3-yl]piperidin-4-yl}-1,4,5,7-tetrahydro-6H-pyrazolo[3,4-b]pyridin-6-one]
3 | 7.46 | O=C1Nc2[nH]nc(C3CCN(c4cnc(C(F)(F)F)nc4)CC3)c2[C@@H](C(F)(F)F)[C@H]1O (racemic) [Example 12, cis-5-Hydroxy-4-(trifluoromethyl)-3-{1-[2-(trifluoromethyl)pyrimidin-5-yl]piperidin-4-yl}-1,4,5,7-tetrahydro-6H-pyrazolo[3,4-b]pyridin-6-one]
4 | 6.42 | O=C1Nc2[nH]nc(C3CCN(c4ncc(C(F)(F)F)cc4Cl)CC3)c2[C@@H](C(F)(F)F)[C@H]1O (racemic) [Example 14, cis-3-{1-[3-Chloro-5-(trifluoromethyl)pyridin-2-yl]piperidin-4-yl}-5-hydroxy-4-(trifluoromethyl)-1,4,5,7-tetrahydro-6H-pyrazolo[3,4-b]pyridin-6-one]
5 | 7.51 | O=C1Nc2[nH]nc(C3CCN(c4cc(C(F)(F)F)ccn4)CC3)c2[C@@H](C(F)(F)F)[C@H]1O (racemic) [Example 17, cis-5-Hydroxy-4-(trifluoromethyl)-3-{1-[4-(trifluoromethyl)pyridin-2-yl]piperidin-4-yl}-1,4,5,7-tetrahydro-6H-pyrazolo[3,4-b]pyridin-6-one]
6 | 7.47 | N#Cc1cncc(N2CCC(c3n[nH]c4c3[C@@H](C(F)(F)F)[C@@H](O)C(=O)N4)CC2)c1 (single isomer, unassigned) [Example 31, (+)-5-{4-[cis-5-Hydroxy-6-oxo-4-(trifluoromethyl)-4,5,6,7-tetrahydro-1H-pyrazolo[3,4-b]pyridin-3-yl]piperidin-1-yl}pyridine-3-carbonitrile]
7 | 7.40 | O=C1Nc2[nH]nc(C3CCN(c4ccc(C(F)(F)F)cn4)CC3)c2[C@@H](C(F)(F)F)[C@H]1O (racemic) [Example 2, cis-5-Hydroxy-4-(trifluoromethyl)-3-{1-[5-(trifluoromethyl)pyridin-2-yl]piperidin-4-yl}-1,4,5,7-tetrahydro-6H-pyrazolo[3,4-b]pyridin-6-one]

The next lines start with the compound.

Row | Structure (SMILES) | pEC50
8 | O=C1Nc2[nH]nc(C3CCN(c4cc(C(=O)N5CCCCC5)c(C(F)(F)F)cn4)CC3)c2[C@@H](C(F)(F)F)[C@H]1O (racemic) [Example 33, cis-5-Hydroxy-3-{1-[4-(piperidin-1-ylcarbonyl)-5-(trifluoromethyl)pyridin-2-yl]piperidin-4-yl}-4-(trifluoromethyl)-1,4,5,7-tetrahydro-6H-pyrazolo[3,4-b]pyridin-6-one] | 7.24
9 | O=C1Nc2[nH]nc(C3CCN(c4ccc(C(F)(F)F)nn4)CC3)c2[C@@H](C(F)(F)F)[C@H]1O (racemic) [Example 7, cis-5-Hydroxy-4-(trifluoromethyl)-3-{1-[6-(trifluoromethyl)pyridazin-3-yl]piperidin-4-yl}-1,4,5,7-tetrahydro-6H-pyrazolo[3,4-b]pyridin-6-one] | 6.96
10 | CC(C)c1nc(N2CCC(c3n[nH]c4c3[C@@H](C(F)(F)F)[C@@H](O)C(=O)N4)CC2)cc(C(F)(F)F)n1 (racemic) [Example 9, cis-5-Hydroxy-3-{1-[2-isopropyl-6-(trifluoromethyl)pyrimidin-4-yl]piperidin-4-yl}-4-(trifluoromethyl)-1,4,5,7-tetrahydro-6H-pyrazolo[3,4-b]pyridin-6-one] | 7.57
11 | CC(C)Oc1ccc(N2CCC(c3n[nH]c4c3[C@@H](C(F)(F)F)[C@@H](O)C(=O)N4)CC2)nc1 (racemic) [Example 5, cis-5-Hydroxy-3-[1-(5-isopropoxypyridin-2-yl)piperidin-4-yl]-4-(trifluoromethyl)-1,4,5,7-tetrahydro-6H-pyrazolo[3,4-b]pyridin-6-one] | 6.80
12 | O=C1Nc2[nH]nc(C3CCN(c4cccc(C(F)(F)F)n4)CC3)c2[C@@H](C(F)(F)F)[C@H]1O (racemic) [Example 16, cis-5-Hydroxy-4-(trifluoromethyl)-3-{1-[6-(trifluoromethyl)pyridin-2-yl]piperidin-4-yl}-1,4,5,7-tetrahydro-6H-pyrazolo[3,4-b]pyridin-6-one] | 7.21
13 | O=C1Nc2[nH]nc(C3CCN(c4nnc(C(F)(F)F)s4)CC3)c2[C@@H](C(F)(F)F)[C@H]1O (single isomer, unassigned) [Example 26, (+)-cis-5-Hydroxy-4-(trifluoromethyl)-3-{1-[5-(trifluoromethyl)-1,3,4-thiadiazol-2-yl]piperidin-4-yl}-1,4,5,7-tetrahydro-6H-pyrazolo[3,4-b]pyridin-6-one] | 7.19
14 | O=C1Nc2[nH]nc(C3CCN(c4ccc(C(F)(F)F)cn4)CC3)c2C(O)(C(F)(F)F)C1O (stereo not drawn) [Example 4, 4,5-Dihydroxy-4-(trifluoromethyl)-3-{1-[5-(trifluoromethyl)pyridin-2-yl]piperidin-4-yl}-1,4,5,7-tetrahydro-6H-pyrazolo[3,4-b]pyridin-6-one] | 7.66
15 | O=C1Nc2[nH]nc(C3CCN(c4ccc(C(F)(F)F)nn4)CC3)c2[C@@H](C(F)(F)F)[C@H]1O (single isomer, unassigned) [Example 19, (+)-cis-5-Hydroxy-4-(trifluoromethyl)-3-{1-[6-(trifluoromethyl)pyridazin-3-yl]piperidin-4-yl}-1,4,5,7-tetrahydro-6H-pyrazolo[3,4-b]pyridin-6-one] | 7.46
16 | Cc1cc(N2CCC(c3n[nH]c4c3[C@@H](C(F)(F)F)[C@@H](O)C(=O)N4)CC2)cnc1C#N (single isomer, unassigned) [Example 27, (+)-5-{4-[cis-5-Hydroxy-6-oxo-4-(trifluoromethyl)-4,5,6,7-tetrahydro-1H-pyrazolo[3,4-b]pyridin-3-yl]piperidin-1-yl}-3-methylpyridine-2-carbonitrile] | 7.43
17 | O=C1Nc2[nH]nc(C3CCN(c4ccnc(C(F)(F)F)n4)CC3)c2[C@@H](C(F)(F)F)[C@H]1O (single isomer, unassigned) [Example 25, (+)-cis-5-Hydroxy-4-(trifluoromethyl)-3-{1-[2-(trifluoromethyl)pyrimidin-4-yl]piperidin-4-yl}-1,4,5,7-tetrahydro-6H-pyrazolo[3,4-b]pyridin-6-one] | 7.00
18 | O=C1Nc2[nH]nc(C3CCN(c4ccc(OC(F)F)cn4)CC3)c2[C@@H](C(F)(F)F)[C@H]1O (racemic) [Example 37, cis-3-{1-[5-(Difluoromethoxy)pyridin-2-yl]piperidin-4-yl}-5-hydroxy-4-(trifluoromethyl)-1,4,5,7-tetrahydro-6H-pyrazolo[3,4-b]pyridin-6-one] | 7.03
19 | CC(C)Oc1ccc(N2CCC(c3n[nH]c4c3[C@@H](C(F)(F)F)[C@@H](O)C(=O)N4)CC2)cn1 (single isomer, unassigned) [Example 39, cis-5-hydroxy-3-[1-(6-isopropoxypyridin-3-yl)piperidin-4-yl]-4-(trifluoromethyl)-1,4,5,7-tetrahydro-6H-pyrazolo[3,4-b]pyridin-6-one] | 7.04
20 | N#Cc1cnc(N2CCC(c3n[nH]c4c3[C@@H](C(F)(F)F)[C@@H](O)C(=O)N4)CC2)cc1C(F)(F)F (racemic) [Example 13, 6-{4-[cis-5-Hydroxy-6-oxo-4-(trifluoromethyl)-4,5,6,7-tetrahydro-1H-pyrazolo[3,4-b]pyridin-3-yl]piperidin-1-yl}-4-(trifluoromethyl)pyridine-3-carbonitrile] | 7.43
21 | O=C1Nc2[nH]nc(C3CCN(c4nc(C(F)(F)F)cs4)CC3)c2[C@@H](C(F)(F)F)[C@H]1O (racemic) [Example 15, cis-5-Hydroxy-4-(trifluoromethyl)-3-{1-[4-(trifluoromethyl)-1,3-thiazol-2-yl]piperidin-4-yl}-1,4,5,7-tetrahydro-6H-pyrazolo[3,4-b]pyridin-6-one] | 6.54
